In PubChem BioAssay (NCI):
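Grown in 96-well plates, cells were treated for 48 hours with each compound at five concentrations. Insufficient inhibition: endpoint recorded as highest concentration tested. TGI marks complete inhibition of growth.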

Tests used:
Assay in all cases: inhibition of tumour cell growth, NCI panel, 48 h
SR leukemia = system: SR leukemia
U251 CNS = system: U251 CNS
ACHN renal = system: ACHN renal
OVCAR-8 ovarian = system: OVCAR-8 ovarian
RXF 393 renal = system: RXF 393 renal
A498 renal = system: A498 renal
SK-MEL-5 melanoma = system: SK-MEL-5 melanoma
A549 NSCLC = system: A549 NSCLC
CCRF-CEM leukemia = system: CCRF-CEM leukemia
CAKI-1 renal = system: CAKI-1 renal
SF-295 CNS = system: SF-295 CNS
NCI-H460 lung = system: NCI-H460 lung
SNB-19 CNS = system: SNB-19 CNS
SF-268 CNS = system: SF-268 CNS
M14 melanoma = system: M14 melanoma
HCC-2998 colon = system: HCC-2998 colon
UO-31 renal = system: UO-31 renal
DMS 114 small cell lung = system: DMS 114 small cell lung
LOX IMVI melanoma = system: LOX IMVI melanoma
K-562 leukemia = system: K-562 leukemia
UACC-62 melanoma = system: UACC-62 melanoma
NCI-H23 lung = system: NCI-H23 lung
HOP-92 NSCLC = system: HOP-92 NSCLC
SW-620 colon = system: SW-620 colon
OVCAR-4 ovarian = system: OVCAR-4 ovarian
MOLT-4 leukemia = system: MOLT-4 leukemia
EKVX NSCLC = system: EKVX NSCLC
HCT-15 colon = system: HCT-15 colon
SNB-78 CNS = system: SNB-78 CNS
KM12 colon = system: KM12 colon
MALME-3M melanoma = system: MALME-3M melanoma
LXFL 529 NSCLC = system: LXFL 529 NSCLC
786-0 renal = system: 786-0 renal
OVCAR-5 ovarian = system: OVCAR-5 ovarian
HCT-116 colon = system: HCT-116 colon
SF-539 CNS = system: SF-539 CNS
NCI-H226 lung = system: NCI-H226 lung
HOP-62 NSCLC = system: HOP-62 NSCLC
IGROV1 ovarian = system: IGROV1 ovarian
SK-OV-3 ovarian = system: SK-OV-3 ovarian
RPMI-8226 leukemia = system: RPMI-8226 leukemia
UACC-257 melanoma = system: UACC-257 melanoma
COLO 205 colon = system: COLO 205 colon
SN12C renal = system: SN12C renal
SK-MEL-2 melanoma = system: SK-MEL-2 melanoma
NCI-H522 lung = system: NCI-H522 lung
SK-MEL-28 melanoma = system: SK-MEL-28 melanoma
OVCAR-3 ovarian = system: OVCAR-3 ovarian
HT29 colon = system: HT29 colon
MDA-MB-435 = system: MDA-MB-435
HS 578T breast = system: HS 578T breast
BT-549 breast = system: BT-549 breast
TK-10 renal = system: TK-10 renal
MCF7 breast = system: MCF7 breast
SNB-75 CNS = system: SNB-75 CNS
MDA-N = system: MDA-N
PC-3 prostate = system: PC-3 prostate
MDA-MB-231 breast = system: MDA-MB-231 breast
NCI/ADR-RES ovarian = system: NCI/ADR-RES ovarian
HL-60(TB) leukemia = system: HL-60(TB) leukemia
T-47D breast = system: T-47D breast
DU-145 prostate = system: DU-145 prostate

## O=C(Nc1cccc([N+](=O)[O-])c1)/C(=N\NC(=O)c1ccncc1)c1nc2ccc([N+](=O)[O-])cc2[nH]c1=O
SR leukemia
  TGI: > 100 µM
U251 CNS
  TGI: > 100 µM
ACHN renal
  TGI: > 100 µM
OVCAR-8 ovarian
  TGI: > 100 µM
RXF 393 renal
  TGI: > 100 µM
A498 renal
  TGI: > 100 µM
SK-MEL-5 melanoma
  TGI: > 100 µM
A549 NSCLC
  TGI: > 100 µM
CCRF-CEM leukemia
  TGI: > 100 µM
CAKI-1 renal
  TGI: > 100 µM
SF-295 CNS
  TGI: > 100 µM
NCI-H460 lung
  TGI: > 100 µM
SNB-19 CNS
  TGI: > 100 µM
SF-268 CNS
  TGI: > 100 µM
M14 melanoma
  TGI: > 100 µM
HCC-2998 colon
  TGI: 93.8 µM
UO-31 renal
  TGI: > 100 µM
DMS 114 small cell lung
  TGI: > 100 µM
LOX IMVI melanoma
  TGI: > 100 µM
K-562 leukemia
  TGI: > 100 µM
UACC-62 melanoma
  TGI: > 100 µM
NCI-H23 lung
  TGI: > 100 µM
HOP-92 NSCLC
  TGI: > 100 µM
SW-620 colon
  TGI: > 100 µM
OVCAR-4 ovarian
  TGI: > 100 µM
MOLT-4 leukemia
  TGI: > 100 µM
EKVX NSCLC
  TGI: > 100 µM
HCT-15 colon
  TGI: > 100 µM
SNB-78 CNS
  TGI: > 100 µM
KM12 colon
  TGI: > 100 µM
MALME-3M melanoma
  TGI: > 100 µM
LXFL 529 NSCLC
  TGI: > 100 µM
786-0 renal
  TGI: > 100 µM
OVCAR-5 ovarian
  TGI: > 100 µM
HCT-116 colon
  TGI: > 100 µM
SF-539 CNS
  TGI: > 100 µM
NCI-H226 lung
  TGI: > 100 µM
HOP-62 NSCLC
  TGI: > 100 µM
IGROV1 ovarian
  TGI: > 100 µM
SK-OV-3 ovarian
  TGI: > 100 µM
RPMI-8226 leukemia
  TGI: > 100 µM
UACC-257 melanoma
  TGI: > 100 µM
COLO 205 colon
  TGI: > 100 µM
SN12C renal
  TGI: > 100 µM
SK-MEL-2 melanoma
  TGI: > 100 µM
NCI-H522 lung
  TGI: > 100 µM
SK-MEL-28 melanoma
  TGI: > 100 µM
OVCAR-3 ovarian
  TGI: > 100 µM
HT29 colon
  TGI: > 100 µM

## CN1CCC(CN2c3ccccc3Sc3ccccc32)C1 (stereo not drawn)
SR leukemia
  TGI: 29.6 µM
U251 CNS
  TGI: 26.6 µM
MDA-MB-435
  TGI: 23.7 µM
ACHN renal
  TGI: 27.9 µM
OVCAR-8 ovarian
  TGI: 31.9 µM
RXF 393 renal
  TGI: 17.4 µM
A498 renal
  TGI: 26.2 µM
SK-MEL-5 melanoma
  TGI: 27.7 µM
A549 NSCLC
  TGI: 32.2 µM
CCRF-CEM leukemia
  TGI: 31.6 µM
HS 578T breast
  TGI: 36.7 µM
CAKI-1 renal
  TGI: 28.8 µM
SF-295 CNS
  TGI: 29.8 µM
NCI-H460 lung
  TGI: 28.2 µM
SNB-19 CNS
  TGI: 33.1 µM
SF-268 CNS
  TGI: 29.5 µM
BT-549 breast
  TGI: 30.8 µM
M14 melanoma
  TGI: 23.5 µM
HCC-2998 colon
  TGI: 24.7 µM
UO-31 renal
  TGI: 30 µM
LOX IMVI melanoma
  TGI: 30 µM
K-562 leukemia
  TGI: 27.4 µM
TK-10 renal
  TGI: 31.4 µM
UACC-62 melanoma
  TGI: 25.9 µM
MCF7 breast
  TGI: 35 µM
SNB-75 CNS
  TGI: 11.1 µM
NCI-H23 lung
  TGI: 36 µM
HOP-92 NSCLC
  TGI: 29.5 µM
SW-620 colon
  TGI: 35.7 µM
OVCAR-4 ovarian
  TGI: 28.1 µM
MOLT-4 leukemia
  TGI: 38.7 µM
MDA-N
  TGI: 27.7 µM
EKVX NSCLC
  TGI: 31.5 µM
HCT-15 colon
  TGI: 31.4 µM
KM12 colon
  TGI: 34.5 µM
MALME-3M melanoma
  TGI: 31.7 µM
PC-3 prostate
  TGI: 25.4 µM
786-0 renal
  TGI: 27.9 µM
OVCAR-5 ovarian
  TGI: 31.8 µM
HCT-116 colon
  TGI: 26.9 µM
MDA-MB-231 breast
  TGI: 27.4 µM
SF-539 CNS
  TGI: 31.9 µM
NCI-H226 lung
  TGI: 35 µM
NCI/ADR-RES ovarian
  TGI: 29.8 µM
HOP-62 NSCLC
  TGI: 28.5 µM
HL-60(TB) leukemia
  TGI: 29.7 µM
IGROV1 ovarian
  TGI: 31.6 µM
SK-OV-3 ovarian
  TGI: 31.6 µM
RPMI-8226 leukemia
  TGI: 33.8 µM
UACC-257 melanoma
  TGI: 24.4 µM
T-47D breast
  TGI: 34.2 µM
COLO 205 colon
  TGI: 25.2 µM
SN12C renal
  TGI: 29.1 µM
SK-MEL-2 melanoma
  TGI: 30.6 µM
NCI-H522 lung
  TGI: 32 µM
DU-145 prostate
  TGI: 38.1 µM
SK-MEL-28 melanoma
  TGI: 19.4 µM
OVCAR-3 ovarian
  TGI: 28.6 µM
HT29 colon
  TGI: 23.8 µM
